# Molecular target: T1, MRGPRX2 (Homo sapiens, UniProt Q96LB1)
# T1 sequence (Q96LB1 1-330): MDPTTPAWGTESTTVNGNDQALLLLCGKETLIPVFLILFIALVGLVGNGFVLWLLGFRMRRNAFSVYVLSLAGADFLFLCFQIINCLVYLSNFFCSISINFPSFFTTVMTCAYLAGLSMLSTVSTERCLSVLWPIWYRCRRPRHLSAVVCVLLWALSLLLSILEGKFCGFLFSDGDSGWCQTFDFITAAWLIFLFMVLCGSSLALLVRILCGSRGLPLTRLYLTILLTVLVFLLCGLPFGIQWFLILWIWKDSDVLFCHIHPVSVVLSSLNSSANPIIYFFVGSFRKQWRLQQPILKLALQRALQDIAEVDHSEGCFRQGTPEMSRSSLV
# Assay: MRGPRX2 reporter cell assay (NFAT-RE luciferase, Substance P stimulation)
# Format: cell-based
# Details: U2OS cells stably transfected with MRGPRX2 and NFAT-RE luciferase reporter; Substance P at EC80; class symbols
# Procedure: MRGPRX2 Reporter Cell Assays U2OS cells (ATCC, Manassas, VA) were stably transfected with MRGPRX2 expression clones (GeneCopoeia, Rockville, MD) and the pGL4.30 [luc2P/NFAT-RE/Hygro] reporter plasmid (Promega, Madison, WI). Clonal cells were maintained in Growth Media (McCoy's 5A, 10% FBS, 495 μg/ml hygromycin, 2 μg/ml puromycin, 100 units/ml penicillin, and 100 ug/ml streptomycin). The day before assay, cells were plated to white 384-well microplates at 3000 (MRGPRX2) cells/well in 10 ul Assay Media (McCoy's 5A, 2% charcoal dextran stripped FBS, 100 units/ml penicillin, and 100 ug/ml streptomycin) (Gibco, Thermo Fisher) and allowed to adhere overnight. The following day, serially diluted compound stocks were added directly to the cells (final DMSO concentration of 0.5%) and pre-incubated for 30 minutes at 37° C., 5% CO2. The final concentration of Substance P (Tocris, Minneapolis, MN, or PEPTIDE INSTITUTE, Osaka, Japan) corresponding to EC80 was added to stimulate the (MRGPRX2) cells. Cells were returned to the incubator for 6 hrs, after which 5 ul of ONE-GLO substrate (Promega) was added. Luminescence was read within 15 minutes (BioTek, Winooski, VT or infinite M1000Pro, Tecan Japan, Kanagawa, Japan). Percent inhibition for each test compound was calculated using the formula: […] where: • A=the luminescence count of the “test compound” well • B=the median luminescence count of the “Vehicle (0.5% DMSO)” wells • C═the median luminescence count of the “Vehicle (0.5% DMSO)+5 uM of substance P” wells The mean percent inhibition of each concentration of “test compound” was used to generate dose-response curves. IC50 values were calculated using a four-parameter logistic fit to the data using GraphPad Prism software. • +++: […]
row,Compound,IC50
1,"Cn1cc(-c2c(-c3c(C(F)F)nn4c3OC[C@@H](NC(=O)[C@H]3C[C@H]3F)C4)[nH]c3ncccc23)c(OC(F)F)n1 (atropisomer, axis not shown) [EX. 548]",< 10 nM
2,"COc1ccc(F)cc1-c1[nH]c2ncccc2c1-c1cc(C)ccc1F [EX. 21, 2-(5-fluoro-2-methoxy-phenyl)-3-(2-fluoro-5-methyl-phenyl)-1H-pyrrolo[2,3-b]pyridine]",< 10 nM
3,COc1ccc(F)cc1-c1[nH]c2nccc(F)c2c1-c1ccccc1C#N [EX. 27],< 10 nM
4,[2H]c1c([2H])c([2H])c(-c2[nH]c3nccc(F)c3c2-c2ccccc2C#N)c(O)c1[2H] [EX. 45],< 10 nM
5,N#Cc1ccccc1-c1c(-c2cnn3c2OCCC3)[nH]c2ncccc12 [EX. 50],< 10 nM
6,COc1ccsc1-c1[nH]c2ncccc2c1-c1ccccc1C#N [EX. 53],< 10 nM
7,N#Cc1ccccc1-c1c(-c2cc(F)ccc2O)[nH]c2ncccc12 [EX. 54],< 10 nM
8,N#Cc1ccccc1-c1c(-c2c[nH]nc2C(F)F)[nH]c2ncccc12 [EX. 71],< 10 nM
9,N#Cc1ccccc1-c1c(-c2csnc2C(F)F)[nH]c2ncccc12 [EX. 75],< 10 nM
10,N#Cc1ccccc1-c1c(-c2c[nH]nc2C(F)(F)F)[nH]c2nccc(F)c12 [EX. 77],< 10 nM
11,Cc1ccnc2[nH]c(-c3c[nH]nc3C(F)(F)F)c(-c3ccccc3C#N)c12 [EX. 78],< 10 nM
12,COc1ccc(C#N)c(-c2c(-c3c[nH]nc3C(F)(F)F)[nH]c3ncccc23)c1 [EX. 80],< 10 nM
13,N#Cc1ccccc1-c1c(-c2cn[nH]c2C(F)F)[nH]c2nccc(F)c12 [EX. 81],< 10 nM
14,[2H]c1cnc2[nH]c(-c3cn(C)nc3C(F)F)c(-c3cc(OC([2H])([2H])[2H])ccc3C#N)c2c1 [EX. 89],< 10 nM
15,N#Cc1ccccc1-c1c(-c2cnn3c2OCCC3)[nH]c2nccc(F)c12 [EX. 90],< 10 nM
16,N#Cc1ccccc1-c1c(-c2c[nH]nc2C(F)(F)F)[nH]c2ncccc12 [EX. 94],< 10 nM

row,Compound,IC50
1,COc1ccc(C#N)c(-c2c(-c3c[nH]nc3C(F)F)[nH]c3ncccc23)c1 [EX. 96],< 10 nM
2,Cc1ccc(C#N)c(-c2c(-c3cn(C)nc3C(F)F)[nH]c3ncccc23)c1 [EX. 99],< 10 nM
3,Cc1ccc(C#N)c(-c2c(-c3cnn4cccnc34)[nH]c3ncccc23)c1 [EX. 100],< 10 nM
4,Cc1ccc(C#N)c(-c2c(-c3c[nH]nc3C(F)F)[nH]c3ncccc23)c1 [EX. 101],< 10 nM
5,"COc1ccc(C#N)c(-c2c(-c3cc(F)ccc3OC)[nH]c3ncccc23)c1 [EX. 107, 2-(2-(5-fluoro-2-methoxyphenyl)-1H-pyrrolo[2,3-b]pyridin-3-yl)-4-methoxybenzonitrile]",< 10 nM
6,N#Cc1ccccc1-c1c(-c2ccccc2OCc2ccccc2)[nH]c2ncccc12 [EX. 109],< 10 nM
7,COc1ccc(C#N)c(-c2c(-c3cn(C)nc3C(F)F)[nH]c3ncccc23)c1 [EX. 113],< 10 nM
8,CCc1ccc(C#N)c(-c2c(-c3cn(C)nc3C(F)F)[nH]c3ncccc23)c1 [EX. 116],< 10 nM
9,N#Cc1ccccc1-c1c(-c2ccccc2O)[nH]c2ncccc12 [EX. 122],< 10 nM
10,Cn1cc(-c2[nH]c3ncccc3c2-c2ccccc2C#N)c(C(F)(F)F)n1 [EX. 128],< 10 nM
11,Cc1ccc(F)c(-c2c(-c3cn(C)nc3C(F)F)[nH]c3ncccc23)c1 [EX. 133],< 10 nM
12,COc1nsc(OC)c1-c1[nH]c2ncccc2c1-c1ccccc1C#N [EX. 137],< 10 nM
13,COc1nn2cccnc2c1-c1[nH]c2ncccc2c1-c1ccccc1C#N [EX. 141],< 10 nM
14,Cn1cc(-c2[nH]c3ncccc3c2-c2ccccc2C#N)c(C(F)F)n1 [EX. 146],< 10 nM
15,CCn1cc(-c2[nH]c3ncccc3c2-c2ccccc2C#N)c(C(F)(F)F)n1 [EX. 147],< 10 nM
16,N#Cc1ccccc1-c1c(-c2c[nH]nc2OC(F)F)[nH]c2ncccc12 [EX. 157],< 10 nM

# From patent US20250326772A1, “MRGPRX2 ANTAGONISTS, PHARMACEUTICAL COMPOSITION INCLUDING MRGPRX2 ANTAGONIST, AND METHOD OF TREATING MRGPRX2-MEDIATED DISEASE OR DISORDER” (KYORIN PHARMACEUTICAL CO., LTD., priority 2024, published 2025)
